Values quoted from earlier work in paper PMC5689474 (Amino acids, 2010).

How the values were obtained:
[1] = system: δ- and μ-opioid receptors; conditions: words; ref Lipkowski et al. 1987; Horan et al. 1993
[2] = after i.c.v. and i.t. administration; ref Lipkowski et al. 1987; Horan et al. 1993
[3] = target: Mouse vas deferens (δ-opioid receptors); conditions: read-out: Functional bioactivity MVD (IC50); ±SEM; ref Lipkowski et al. (1999)
human δ-opioid receptor = human δ-opioid receptor (Homo sapiens, UniProt P41143); conditions: read-out: Binding Kiδ; [3H]DPDPE; ±SEM; ref Lipkowski et al. (1999)
[4] = ref Horan et al. 1993; Yamazaki et al. 2001
rat μ-opioid receptor = rat μ-opioid receptor (Rattus norvegicus, UniProt P33535); conditions: read-out: Binding Kiμ; [3H]DAMGO; ±SEM; ref Lipkowski et al. (1999)
Chain of rat μ-opioid receptor (P33535 whole entry): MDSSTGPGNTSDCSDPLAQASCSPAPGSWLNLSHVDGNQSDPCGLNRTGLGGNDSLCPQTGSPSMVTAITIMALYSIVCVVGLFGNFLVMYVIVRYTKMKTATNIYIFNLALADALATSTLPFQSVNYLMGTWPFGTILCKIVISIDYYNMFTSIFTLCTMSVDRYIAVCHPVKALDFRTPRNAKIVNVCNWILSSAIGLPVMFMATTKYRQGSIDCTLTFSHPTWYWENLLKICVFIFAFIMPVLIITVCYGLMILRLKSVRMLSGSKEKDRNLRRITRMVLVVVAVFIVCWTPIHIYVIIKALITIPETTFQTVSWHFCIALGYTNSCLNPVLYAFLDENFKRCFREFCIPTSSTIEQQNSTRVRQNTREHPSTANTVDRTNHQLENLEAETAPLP

Chain of human δ-opioid receptor (P41143 whole entry): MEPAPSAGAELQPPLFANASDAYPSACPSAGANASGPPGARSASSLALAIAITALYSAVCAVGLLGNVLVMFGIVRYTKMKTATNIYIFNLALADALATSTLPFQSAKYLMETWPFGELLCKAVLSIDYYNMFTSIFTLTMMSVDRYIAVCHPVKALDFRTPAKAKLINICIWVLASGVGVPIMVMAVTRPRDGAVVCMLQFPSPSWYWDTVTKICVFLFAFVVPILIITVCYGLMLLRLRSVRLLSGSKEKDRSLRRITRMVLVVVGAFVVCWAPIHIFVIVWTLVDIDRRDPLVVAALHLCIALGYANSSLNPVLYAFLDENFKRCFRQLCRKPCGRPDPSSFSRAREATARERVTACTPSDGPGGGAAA

Substance: Tyr-D-Ala-Gly-Phe-NH-NH\-Phe\-Gly\-D-Ala\-Tyr [Bph]
- affinity for both δ- and μ-receptors [1]: highly affinity for both δ- and μ-receptors
- potency compared with morphine [2]: significantly higher than morphine
- IC50 [3]: 27 ± 1.5 nM
- Ki (human δ-opioid receptor): 2.6 ± 0.4 nM
- physical dependence compared with morphine [4]: less physical dependence than morphine
- Ki (rat μ-opioid receptor): 1.4 ± 0.2 nM
